Experimental findings from patent US10766869B2, “Triazoles for the treatment of demyelinating dieases” (Vertex Pharmaceuticals Incorporated, priority 2015, dated 2020) are described below.

Structures are written as SMILES. Bounds are passed on as bounds.

For this test, the system named is primary rat mixed cortical cells. The experiment in a line: In vitro myelination assay (MBP positive myelin strands, fold myelin pixels above background). The class given is cell-based. The note with it: Rattus norvegicus, relative to baseline of no added compound, read-out: Fold myelin pixels above background; for fold induction at 1 µM: 1.0 μM compound; for fold induction at 10 µM: 10.0 μM compound. In a few lines: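 Compounds at 1.0 and 10.0 μM were incubated 14 days with dissociated P1 rat cortical cells, which were then fixed and immunostained for MBP. Myelination was scored as fold MBP myelin pixels per well over the no-compound baseline.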

For the molecule `CC(C)(C)c1cc(Nc2ncn(-c3cncnc3)n2)cc(N2CCN(C3COC3)CC2)c1` [Compound 550, N-[3-tert-butyl-5-[4-(oxetan-3-yl)piperazin-1-yl]phenyl]-1-pyrimidin-5-yl-1,2,4-triazol-3-amine], the fold induction at 1 µM fell in the range of 10 to 100 and the fold induction at 10 µM is 10 to 100.

As for `Cc1cc(Nc2ncn(-c3cc(F)cc(F)c3)n2)cc(N2CC(C)(O)C2)c1` [Compound 551, 1-[3-[[1-(3,5-difluorophenyl)-1,2,4-triazol-3-yl]amino]-5-methyl-phenyl]-3-methyl-azetidin-3-ol], the fold induction at 1 µM was in the range of 100 to 1000 and the fold induction at 10 µM was in the range of 10 to 100.

On to `Cc1cc(Nc2ncn(-c3cc(F)cc(F)c3)n2)cc(N2CCNC(C(F)(F)F)C2)c1` (stereo not shown) [Compound 552, 1-(3,5-difluorophenyl)-N-[3-methyl-5-[3-(trifluoromethyl)piperazin-1-yl]phenyl]-1,2,4-triazol-3-amine], for which the fold induction at 1 µM was 10 to 100 and the fold induction at 10 µM lay in the range of 10 to 100.

For the molecule `CCC1(O)CN(c2cc(C)cc(Nc3ncn(-c4cc(F)cc(F)c4)n3)c2)C1` [Compound 553, 1-[3-[[1-(3,5-difluorophenyl)-1,2,4-triazol-3-yl]amino]-5-methyl-phenyl]-3-ethyl-azetidin-3-ol], the fold induction at 1 µM lay in the range of 100 to 1000 and the fold induction at 10 µM lay within 10 to 100.

For the molecule `CCNC(=O)N1CCN(c2cc(C(F)(F)F)cc(Nc3ncn(-c4cc(F)cc(F)c4)n3)n2)CC1` [Compound 554, 4-[6-[[1-(3,5-difluorophenyl)-1,2,4-triazol-3-yl]amino]-4-(trifluoromethyl)-2-pyridyl]-N-ethyl-piperazine-1-carboxamide], the fold induction at 1 µM fell in the range of 10 to 100 and the fold induction at 10 µM is 10 to 100.

As to `CC(=O)N1CCN(c2cc(C(F)(F)F)cc(Nc3ncn(-c4cc(F)cc(F)c4)n3)n2)CC1` [Compound 555, 1-[4-[6-[[1-(3,5-difluorophenyl)-1,2,4-triazol-3-yl]amino]-4-(trifluoromethyl)-2-pyridyl]piperazin-1-yl]ethanone], the fold induction at 1 µM was 10 to 100 and the fold induction at 10 µM was 100 to 1000.

Take `Fc1cc(F)cc(-n2cnc(Nc3cc(C(F)(F)F)cc(N4CCNCC4)n3)n2)c1` [Compound 556, N-[1-(3,5-difluorophenyl)-1,2,4-triazol-3-yl]-6-piperazin-1-yl-4-(trifluoromethyl)pyridin-2-amine]: the fold induction at 1 µM fell in the range of 1 to 10 and the fold induction at 10 µM lay in the range of 1 to 10.

On to `CC(C)(C)OC(=O)N1CCN(c2cc(C(F)(F)F)cc(Nc3ncn(-c4cc(F)cc(F)c4)n3)n2)CC1` [Compound 557, tert-butyl 4-[6-[[1-(3,5-difluorophenyl)-1,2,4-triazol-3-yl]amino]-4-(trifluoromethyl)-2-pyridyl]piperazine-1-carboxylate], for which the fold induction at 1 µM was no more than 1 and the fold induction at 10 µM is no more than 1.

Regarding `Cc1cc(Nc2ncn(-c3cc(F)ccc3F)n2)cc(N2CCNCC2)c1` [Compound 558, 1-(2,5-difluorophenyl)-N-(3-methyl-5-piperazin-1-yl-phenyl)-1,2,4-triazol-3-amine], the fold induction at 1 µM is 10 to 100 and the fold induction at 10 µM is no more than 1.

As for `CCCc1cc(Nc2ncn(-c3ccc(F)c(F)c3)n2)cc(N2CCN(C3COC3)CC2)c1` [Compound 559, 1-(3,4-difluorophenyl)-N-[3-[4-(oxetan-3-yl)piperazin-1-yl]-5-propyl-phenyl]-1,2,4-triazol-3-amine], the fold induction at 1 µM fell in the range of 100 to 1000 and the fold induction at 10 µM was in the range of 10 to 100.

As to `Cc1cc(Nc2ncn(-c3cc(F)cc(F)c3)n2)nc(N2CCOCC2)c1` [Compound 560, N-[1-(3,5-difluorophenyl)-1,2,4-triazol-3-yl]-4-methyl-6-morpholino-pyridin-2-amine], the fold induction at 1 µM was 10 to 100 and the fold induction at 10 µM lay within 100 to 1000.

In the case of `Cc1cc(Nc2ncn(-c3cc(F)cc(F)c3)n2)cc(N2CCN3C(=O)CCC3C2)c1` (stereo not shown) [Compound 561, 2-[3-[[1-(3,5-difluorophenyl)-1,2,4-triazol-3-yl]amino]-5-methyl-phenyl]-1,3,4,7,8,8a-hexahydropyrrolo[1,2-a]pyrazin-6-one], the fold induction at 1 µM was in the range of 100 to 1000 and the fold induction at 10 µM was in the range of 10 to 100.

Consider `Cc1cc(Nc2ncn(-c3cc(F)cc(F)c3)n2)nc(N2CCN(C3CCOC3)CC2)c1` (stereo not shown) [Compound 562, N-[1-(3,5-difluorophenyl)-1,2,4-triazol-3-yl]-4-methyl-6-(4-tetrahydrofuran-3-ylpiperazin-1-yl)pyridin-2-amine], for which the fold induction at 1 µM is 1 to 10 and the fold induction at 10 µM was 1 to 10.

As for `Cc1cc(Nc2ncn(-c3cc(F)cc(F)c3)n2)nc(N2CC(C3COC3)C2)c1` [Compound 563, N-[1-(3,5-difluorophenyl)-1,2,4-triazol-3-yl]-4-methyl-6-[3-(oxetan-3-yl)azetidin-1-yl]pyridin-2-amine], the fold induction at 1 µM is no more than 1 and the fold induction at 10 µM fell in the range of 1 to 10.

For the molecule `Fc1cc(F)cc(-n2cnc(Nc3cc(C(F)(F)F)cc(N4CCN(C5CCOC5)CC4)n3)n2)c1` (stereo not shown) [Compound 564, N-[1-(3,5-difluorophenyl)-1,2,4-triazol-3-yl]-6-(4-tetrahydrofuran-3-ylpiperazin-1-yl)-4-(trifluoromethyl)pyridin-2-amine], the fold induction at 1 µM was no more than 1 and the fold induction at 10 µM is no more than 1.

With `CCOC(=O)C1CCN(c2cc(C)cc(Nc3ncn(-c4cc(F)cc(F)c4)n3)n2)CC1` [Compound 565, ethyl 1-[6-[[1-(3,5-difluorophenyl)-1,2,4-triazol-3-yl]amino]-4-methyl-2-pyridyl]piperidine-4-carboxylate], the fold induction at 1 µM was no more than 1 and the fold induction at 10 µM was no more than 1.

Turning to `Cc1cc(Nc2ncn(-c3cc(F)cc(F)c3)n2)cc(N2CCN3CCOCC3C2)c1` (stereo not shown) [Compound 566, N-[3-(3,4,6,7,9,9a-hexahydro-1H-pyrazino[2,1-c][1,4]oxazin-8-yl)-5-methyl-phenyl]-1-(3,5-difluorophenyl)-1,2,4-triazol-3-amine], the fold induction at 1 µM was in the range of 100 to 1000 and the fold induction at 10 µM was 10 to 100.

In the case of `Fc1cc(F)cc(-n2cnc(Nc3cc(N4CCN(C5COC5)CC4)cc(C(F)(F)F)n3)n2)c1` [Compound 567, N-[1-(3,5-difluorophenyl)-1,2,4-triazol-3-yl]-4-[4-(oxetan-3-yl)piperazin-1-yl]-6-(trifluoromethyl)pyridin-2-amine], the fold induction at 1 µM is no more than 1 and the fold induction at 10 µM is no more than 1.

As for `Cc1cc(Nc2ncn(-c3cc(F)cc(F)c3)n2)nc(N2CCCC(F)C2)c1` (stereo not shown) [Compound 568, N-[1-(3,5-difluorophenyl)-1,2,4-triazol-3-yl]-6-(3-fluoro-1-piperidyl)-4-methyl-pyridin-2-amine], the fold induction at 1 µM lay in the range of 1 to 10 and the fold induction at 10 µM is no more than 1.

As for `Cc1cc(Nc2ncn(-c3cc(F)cc(F)c3)n2)nc(N2CCC(C)(O)CC2)c1` [Compound 569, 1-[6-[[1-(3,5-difluorophenyl)-1,2,4-triazol-3-yl]amino]-4-methyl-2-pyridyl]-4-methyl-piperidin-4-ol], the fold induction at 1 µM was in the range of 1 to 10 and the fold induction at 10 µM fell in the range of 10 to 100.
